# Reference: patent US20250354127A1, “CRYOPRESERVED DAIRY GOAT SEMEN METABOLITE SCREENING AND DILUENT PREPARATION METHOD” (NORTHWEST A&F UNIVERSITY, priority 2024, published 2025)
# Marks after values point to notes of the source that are not given here.
# What was measured:
# dairy goat sperms = test: Sperm viability and motility by CASA semen assisted analysis during preservation at 4 degrees C.; assay type: cell-based
# Description: 1) prepare base diluent: add 30.3 g/L Tris, 16.0 g/L citric acid, 6.4 g/L glucose, 6.4 g/L D-fructose, 2.5 g/L trehalose, 1.0 g/L BSA and 3.75 g/L soybean lecithin into distilled water to 1 L, dissolve in a water bath for 1 hour at 37 degrees C., filter and sterilize, and then add 1 million IU/L penicillin and 1 million IU/L streptomycin; select semen with motility more than 80% for preservation, and keep diluent warm in a water bath at 37 degrees C. before semen dilution; gradually dilute at the dilution ratio (add the diluent into each group of semen along the tube wall during the operation), dilute the semen with the diluent at 1:1 and stand for 3 minutes, then dilute the semen with the diluent at 1:3 and stand for 3 minutes, and let the ratio of semen to diluent reach 1:7 (keep the temperature at 33-35 degrees C. during dilution); bind a centrifuge tube containing the diluted semen with a rubber band and put the centrifuge tube into a beaker containing isothermal water, keep the centrifuge tube vertical and the water level in the beaker higher than the diluent level of in the centrifuge tube, place for 1 hour at room temperature, put the beaker into a refrigerator at 4 degrees C., keep the cooling rate at 8-10 degrees C./h, and shake the centrifuge tube every 8 hours to prevent the sperms from accumulating, sinking to bottom and resulting in death;
# 2) take 5 μL of semen on the days 0, 1, 3 and 5 of semen preservation, put the semen on slides, preheat an objective table and perform microscopic examination at 37 degrees C., and detect semen motility and viability by Meilan CASA semen assisted analysis system; select at least five random fields of view for determination, with a minimum semen count of 200 in each field; the ratio of number of live sperms to total number of sperms is sperm viability, and the ratio of number of linearly moving sperms to total number of sperms is sperm motility. Average the results, and record the test data (see Table 1);
# (§1) 1) add different concentrations of gamma-aminobutyric acids into a tupping ram semen base diluent, and take a group without gamma-aminobutyric acid added as the control group; take a group with gamma-aminobutyric acid added as the experimental group, the addition concentrations are respectively 0.5 g/L, 1.0 g/L, 1.5 g/L and 2.0 g/L, and six duplications exist in each group; screen out the optimal concentration of gamma-aminobutyric acid according to semen quality indexes, set the optimal concentration to T group, and detect the semen membrane and acrosome integrity, various antioxidant enzyme activities and ROS content change after adding the optimal concentration of gamma-aminobutyric acid;
# [1] = Sperm plasma membrane integrity (PMI) by SYBR-14/PI fluorescence staining; assay type: cell-based, dairy goat
# From the text: as §1
# tupping ram sperms = test: Sperm acrosome integrity (CGI) by FITC-PNA fluorescence staining; assay type: cell-based, dairy goat
# From the text: as §1
# sperms = test: Antioxidant indexes of sperms (T-AOC, SOD, GSH-Px, MDA, CAT, ROS) by Solarbio kits; assay type: cell-based, dairy goat
# From the text: as §1
# [2] = 0.5 g/L in base diluent, Day 5 at 4 degrees C.
# [3] = 1.0 g/L in base diluent, Day 5 at 4 degrees C.
# [4] = 1.5 g/L in base diluent, Day 5 at 4 degrees C.
# [5] = 2.0 g/L in base diluent, Day 5 at 4 degrees C.
# [6] = experimental group, day 5 of preservation at 4 degrees C.
# [7] = optimal concentration (T group), day 3 of preservation at 4 degrees C., P<0.05
# [8] = preservation day not given, P<0.05
smiles,measurement,setting,value
"NCCCC(=O)O [gamma-aminobutyric acid, Gamma-aminobutyric acid]",Semen motility %,"dairy goat sperms; 0.5 g/L in base diluent, Day 0",81.36 ± 2.05%
same,Sperm viability %,"dairy goat sperms; 0.5 g/L in base diluent, Day 0",84.12 ± 2.15%
same,Semen motility %,dairy goat sperms; [2],50.69 ± 1.05^b %
same,Sperm viability %,dairy goat sperms; [2],52.45 ± 1.22^b %
same,Sperm motility compared with other addition groups,dairy goat sperms; 1 g/L,higher than those in other addition groups
same,Sperm viability compared with other addition groups,dairy goat sperms; 1 g/L,higher than those in other addition groups
same,Semen motility %,"dairy goat sperms; 1.0 g/L in base diluent, Day 0",81.36 ± 2.05%
same,Sperm viability %,"dairy goat sperms; 1.0 g/L in base diluent, Day 0",84.12 ± 2.15%
same,Semen motility %,dairy goat sperms; [3],53.69 ± 0.84^a %
same,Sperm viability %,dairy goat sperms; [3],56.49 ± 1.32^a %
same,Semen motility %,"dairy goat sperms; 1.5 g/L in base diluent, Day 0",81.36 ± 2.05%
same,Sperm viability %,"dairy goat sperms; 1.5 g/L in base diluent, Day 0",84.12 ± 2.15%
same,Semen motility %,dairy goat sperms; [4],47.32 ± 2.41^c %
same,Sperm viability %,dairy goat sperms; [4],50.52 ± 2.74^b %
same,Semen motility %,"dairy goat sperms; 2.0 g/L in base diluent, Day 0",81.36 ± 2.05%
same,Sperm viability %,"dairy goat sperms; 2.0 g/L in base diluent, Day 0",84.12 ± 2.15%
same,Semen motility %,dairy goat sperms; [5],45.55 ± 1.52^d %
same,Sperm viability %,dairy goat sperms; [5],45.36 ± 2.31^c %
same,Plasma membrane integrity of sperms,[1]; [6],58.93%
same,"Plasma membrane integrity of sperms, T group vs NC group",[1]; [7],significantly higher
same,Acrosome integrity of sperms,tupping ram sperms; [6],60.12%
same,"Acrosome integrity of sperms, T group vs NC group",tupping ram sperms; [7],significantly higher
same,"GSH-Px, T group vs NC group",sperms; day 1 of preservation,not significantly different
same,"MDA, T group vs NC group",sperms; day 1 of preservation,not significantly different
same,"T-AOC, T group vs NC group",sperms; day 1 of preservation,not significantly different
same,"CAT enzyme activity, T group vs NC group","sperms; day 1 of preservation, P<0.05",significantly increased
same,"Level of ROS, T group vs NC group","sperms; day 1 of preservation, P<0.05",significantly decreased
same,"SOD enzyme activity, T group vs NC group","sperms; day 1 of preservation, P<0.05",significantly increased
same,"Level of CAT, T group vs NC group",sperms; [8],significantly higher
same,"Level of GSH-Px, T group vs NC group",sperms; [8],significantly higher
same,"Level of MDA, T group vs NC group",sperms; [8],significantly lower
same,"Level of ROS, T group vs NC group",sperms; [8],significantly lower
same,"Level of SOD, T group vs NC group",sperms; [8],significantly higher
same,"Level of T-AOC, T group vs NC group",sperms; [8],significantly higher
